Measured values as given in patent publication US12692253B2, “Antimicrobial compounds and methods” (Curza Global, LLC, priority 2019, dated 2026).

Columns and labels:
[1] = system: E. coli S30 extract (bacterial protein synthesis); assay: E. coli S30 extract coupled transcription-translation luciferase assay (inhibition of bacterial protein synthesis); assay type: biochemical; conditions: class by IC50 or % inhibition @ 1 μM, read-out: S30 IC50 (μM/% inhib.)
Method in brief: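 Coupled transcription-translation in E. coli S30 circular-DNA extract expressing luciferase from pBESTluc, with 8-point 2-fold compound dilutions; 1 hour at 37 °C, stopped at 4 °C. Luminescence read; % inhibition versus no-inhibitor wells, no-DNA wells as background.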

[2] = biological target: Rabbit Reticulocyte Lysate (eukaryotic protein synthesis); assay: Rabbit reticulocyte lysate luciferase assay (inhibition of eukaryotic protein synthesis); assay type: biochemical; conditions: class by IC50 or % inhibition @ 1 μM, read-out: Rabbit reticulocyte IC50 (μM/% inhib.)
Method in brief: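 In vitro translation of luciferase control RNA in nuclease-treated rabbit reticulocyte lysate with amino acid mixture, compounds in 2-fold serial dilution, 90 minutes at 30° C. Luminescence read after luciferase reagent; % inhibition relative to water no-inhibitor controls, with no-RNA background wells.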

[3] = system: A. baumannn (Ab); assay: Broth microdilution minimum inhibitory concentration (MIC), CLSI; assay type: cell-based; conditions: for MIC: Acinetobacter baumannii, read-out: Ab + bicarb MIC
Method in brief: (§1)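 CLSI broth microdilution with modification: 8-point two-fold compound dilutions in CAMHB, CAMHB plus 6.25 or 25 mM sodium bicarbonate, or CAMHB plus 0–50% heat-inactivated human serum. Inoculum 5×10^4 CFU/well from log-phase cultures adjusted to 0.5 McFarland; triplicate wells.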

[4] = system: E. coli (Ec); assay: as above; assay type: cell-based; conditions: growth medium supplemented with sodium bicarbonate; for MIC: Escherichia coli, read-out: E. coli + bicarb MIC
Method in brief: as §1

[5] = system: E. faecalis (Ef); assay: as above; assay type: cell-based; conditions: growth medium supplemented with sodium bicarbonate; for MIC: Enterococcus faecalis, read-out: Ef + bicarb MIC
Method in brief: as §1

[6] = system: P. aeruginosa (Pa); assay: as above; assay type: cell-based; conditions: growth medium supplemented with sodium bicarbonate; for MIC: Pseudomonas aeruginosa, read-out: Pa MIC + bicarb
Method in brief: as §1

[7] = system: S. aureus (Sa); assay: as above; assay type: cell-based; conditions: growth medium supplemented with sodium bicarbonate; for MIC: Staphylococcus aureus, read-out: Sa + bicarb MIC
Method in brief: as §1

Row | Compound | IC50 [1] [µM] | IC50 [2] [µM] | MIC [3] [µg/mL] | MIC [4] [µg/mL] | MIC [5] [µg/mL] | MIC [6] [µg/mL] | MIC [7] [µg/mL] | Ef + bicarb MIC [5] | Ab + bicarb MIC ([3]; A. baumannii, growth medium supplemented with sodium bicarbonate) | E. coli + bicarb MIC [4] | Pa MIC + bicarb [6] | Sa + bicarb MIC [7]
1 | CC(C)(N)C(=O)N1CCN(C(=O)Nc2ccn(-c3ccc(CCN4C[C@@H]5[C@@H](CN)[C@@H]5C4)c(C(F)(F)F)c3)c(=O)n2)CC1 [Compound 102] | < 0.5 | ≥ 1 | > 32 | < 8 | 8 to 32 | 8 to 32 | < 8 | – | – | – | – | –
2 | CC(C)(N)C(=O)N1CCN(C(=O)Nc2ccn(-c3ccc(CCN4CCC5CC5(N)C4)c(C(F)(F)F)c3)c(=O)n2)CC1 (stereo not drawn) [Compound 103] | 0.5 to 1 | ≥ 1 | > 32 | 8 to 32 | 8 to 32 | > 32 | 8 to 32 | – | – | – | – | –
3 | CC(C)(N)C(=O)N1CCN(C(=O)Nc2ccn(-c3ccc(C(N)C(=O)N4C[C@@H]5[C@@H](N)[C@@H]5C4)cc3)c(=O)n2)CC1 (stereo partly drawn) [Compound 105] | ≥ 1 | ≥ 1 | > 32 | > 32 | > 32 | > 32 | > 32 | – | – | – | – | –
4 | CC(C)(N)C(=O)N1CCN(C(=O)Nc2ccn(-c3ccc(CCN4C5CCC4CC(N)C5)cc3)c(=O)n2)CC1 (stereo not drawn) [Compound 106] | ≥ 1 | ≥ 1 | > 32 | < 8 | – | > 32 | < 8 | ++ (An MIC value (μg/mL) that is 8 μg/mL or greater and less than 32 μg/mL) | – | – | – | –
5 | CC(C)(N)C(=O)N1CCN(C(=O)Nc2ccn(-c3ccc(CCN4CC5(CCC5N)C4)cc3)c(=O)n2)CC1 (stereo not drawn) [Compound 107] | ≥ 1 | ≥ 1 | > 32 | < 8 | 8 to 32 | > 32 | < 8 | – | – | – | – | –
6 | CC(C)(N)C(=O)N1CCN(C(=O)Nc2ccn(-c3ccc(CCN4C5CCC4CC(N)C5)cc3)c(=O)n2)CC1 (stereo not drawn) [Compound 108] | ≥ 1 | ≥ 1 | – | – | – | – | – | + (An MIC (μg/mL) value that is 32 μg/mL or greater) | + (An MIC (μg/mL) value that is 32 μg/mL or greater) | +++ (An MIC value (μg/mL) that is less than 8 μg/mL) | + (An MIC (μg/mL) value that is 32 μg/mL or greater) | +++ (An MIC value (μg/mL) that is less than 8 μg/mL)
7 | CC(C)(N)C(=O)N1CCN(C(=O)Nc2ccn(-c3cccc(CCN4CC5(CC(N)C5)C4)c3)c(=O)n2)CC1 [Compound 109] | < 0.5 | ≥ 1 | > 32 | < 8 | > 32 | > 32 | < 8 | – | – | – | – | –
8 | CC(C)(N)C(=O)N1CCN(C(=O)Nc2ccn(-c3cccc(CCN4CCC5(CC4)CC(N)C5)c3)c(=O)n2)CC1 [Compound 110] | 0.5 to 1 | ≥ 1 | > 32 | < 8 | 8 to 32 | > 32 | < 8 | – | – | – | – | –
9 | CC(Cc1ccc(-n2ccc(NC(=O)N3CCN(C(=O)C(C)(C)N)CC3)nc2=O)cc1)N1CC2(CCC2N)C1 (stereo not drawn) [Compound 111] | ≥ 1 | ≥ 1 | > 32 | < 8 | 8 to 32 | > 32 | < 8 | – | – | – | – | –
10 | CC(Cc1ccc(-n2ccc(NC(=O)N3CCN(C(=O)C(C)(C)N)CC3)nc2=O)cc1)N1CC2(CC(N)C2)C1 (stereo not drawn) [Compound 112] | 0.5 to 1 | ≥ 1 | > 32 | < 8 | 8 to 32 | > 32 | < 8 | – | – | – | – | –
11 | CC(C)(N)C(=O)N1CCN(C(=O)Nc2ccn(-c3cccc(CCN4CC5CCC(C4)C5N)c3)c(=O)n2)CC1 (stereo not drawn) [Compound 113] | ≥ 1 | ≥ 1 | > 32 | < 8 | > 32 | > 32 | > 32 | – | – | – | – | –
12 | CC(Cc1ccc(-n2ccc(NC(=O)N3CCN(C(=O)C(C)(C)N)CC3)nc2=O)cc1)N1CCC2(CC1)CC(N)C2 (stereo not drawn) [Compound 114] | < 0.5 | ≥ 1 | 8 to 32 | < 8 | < 8 | 8 to 32 | < 8 | – | – | – | – | –
13 | CC(Cc1ccc(-n2ccc(NC(=O)N3CCN(C(=O)[C@@](C)(N)CO)CC3)nc2=O)cc1)N1CCC2(CC1)CC(N)C2 (stereo partly drawn) [Compound 115] | < 0.5 | ≥ 1 | > 32 | < 8 | < 8 | > 32 | < 8 | – | – | – | – | –
14 | CC(C)(N)C(=O)N1CCN(C(=O)Nc2ccn(-c3ccc(CCN4C[C@@H]5[C@@H](CN)[C@@H]5C4)cc3)c(=O)n2)CC1 [Compound 116] | < 0.5 | ≥ 1 | < 8 | < 8 | 8 to 32 | 8 to 32 | < 8 | – | – | – | – | –
15 | CC(C)(N)C(=O)N1CCN(C(=O)Nc2ccn(-c3ccc(CCN4CC5CC5(CN)C4)cc3)c(=O)n2)CC1 (stereo not drawn) [Compound 117] | < 0.5 | ≥ 1 | 8 to 32 | < 8 | < 8 | 8 to 32 | < 8 | – | – | – | – | –
16 | C[C@@](N)(CO)C(=O)N1CCN(C(=O)Nc2ccn(-c3ccc(CCN4CC5CC5(CN)C4)cc3)c(=O)n2)CC1 (stereo partly drawn) [Compound 120] | < 0.5 | ≥ 1 | > 32 | < 8 | 8 to 32 | 8 to 32 | < 8 | – | – | – | – | –
17 | CC(CN1C[C@@H]2[C@@H](CN)[C@@H]2C1)c1ccc(-n2ccc(NC(=O)N3CCN(C(=O)C(C)(C)N)CC3)nc2=O)cc1 (stereo partly drawn) [Compound 121] | 0.5 to 1 | ≥ 1 | > 32 | < 8 | 8 to 32 | 8 to 32 | < 8 | – | – | – | – | –
18 | CC(Cc1ccc(-n2ccc(NC(=O)N3CCN(C(=O)C(C)(C)N)CC3)nc2=O)cc1)N1C[C@@H]2[C@@H](CN)[C@@H]2C1 (stereo partly drawn) [Compound 122] | < 0.5 | ≥ 1 | 8 to 32 | < 8 | < 8 | < 8 | < 8 | – | – | – | – | –
19 | CC(C)(N)C(=O)N1CCN(C(=O)Nc2ccn(-c3ccc(CCN4CC5CC5(CN)C4)c(F)c3)c(=O)n2)CC1 (stereo not drawn) [Compound 123] | < 0.5 | ≥ 1 | > 32 | < 8 | < 8 | > 32 | < 8 | – | – | – | – | –
20 | CC(Cc1ccc(-n2ccc(NC(=O)N3CCN(C(=O)C(C)(C)N)C[C@H]3C)nc2=O)cc1)N1C[C@@H]2[C@@H](CN)[C@@H]2C1 (stereo partly drawn) [Compound 124] | < 0.5 | ≥ 1 | > 32 | < 8 | < 8 | 8 to 32 | < 8 | – | – | – | – | –
21 | CC(Cc1ccc(-n2ccc(NC(=O)N3CCN(C(=O)[C@@](C)(N)CO)CC3)nc2=O)cc1)N1C[C@@H]2[C@@H](CN)[C@@H]2C1 (stereo partly drawn) [Compound 125] | < 0.5 | ≥ 1 | > 32 | < 8 | < 8 | 8 to 32 | < 8 | – | – | – | – | –
